Activity calls are given as the source filed them. The rule behind the calls is not given here.
target: T1, Vitamin D3 receptor (Homo sapiens) (UniProt P11473); assay: Agonist activity at vitamin D receptor (unknown origin) expressed in HEK293 cells co-expressing pCMX-RXRalpha and pCMX-beta-galactosidase assessed as induction of receptor transactivation incubated for 16 to 24 hrs by luciferase reporter gene assay relative to 3-keto-LCA; assay type: cell-based
T1 sequence (whole entry): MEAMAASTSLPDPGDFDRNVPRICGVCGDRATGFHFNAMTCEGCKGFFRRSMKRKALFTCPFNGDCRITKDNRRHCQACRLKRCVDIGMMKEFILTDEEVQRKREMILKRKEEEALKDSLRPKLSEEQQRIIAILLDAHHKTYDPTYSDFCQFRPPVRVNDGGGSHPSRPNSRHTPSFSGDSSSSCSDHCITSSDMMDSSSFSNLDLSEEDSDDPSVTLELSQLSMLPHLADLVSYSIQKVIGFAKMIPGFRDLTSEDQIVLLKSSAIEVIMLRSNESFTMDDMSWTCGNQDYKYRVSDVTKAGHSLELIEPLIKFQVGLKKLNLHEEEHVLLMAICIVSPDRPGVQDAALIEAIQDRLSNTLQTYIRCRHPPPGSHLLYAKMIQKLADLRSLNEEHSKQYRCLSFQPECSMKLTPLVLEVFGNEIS

Row | SMILES | Activity
1 | C[C@]12CCC(=O)C[C@H]1CC[C@@H]1[C@@H]2CC[C@@]2(C)[C@H]1C[C@H]1C[C@@H](CCC(=O)O)[C@]12O | inactive
2 | CC(C)(O)CCC[C@H]1C[C@@]12CC[C@H]1[C@@H]3CCc4cc(O)ccc4[C@H]3CC[C@@]12C | Active
3 | C[C@]12CCC(=O)C[C@H]1CC[C@@H]1[C@@H]2CC[C@@]2(C)[C@H]1CC[C@@]21C[C@H]1CCC(=O)O | inactive
4 | CC(C)(O)CCC[C@H]1C[C@@H]2C[C@H]3[C@@H]4CCc5cc(O)ccc5[C@H]4CC[C@]3(C)[C@@]21O | Active
5 | C[C@]12CCC(=O)C[C@H]1CC[C@@H]1[C@@H]2CC[C@@]2(C)[C@H]1CC[C@@]21C[C@@H]1CCC(=O)O | inactive
6 | CC(C)(O)CCC[C@@H]1C[C@@]12CC[C@H]1[C@@H]3CCc4cc(O)ccc4[C@H]3CC[C@@]12C | Active
7 | CC(C)(O)CCC[C@@H]1C[C@@H]2C[C@H]3[C@@H]4CCc5cc(O)ccc5[C@H]4CC[C@]3(C)[C@]12O | Active
8 | C[C@]12CCC(=O)C[C@H]1CC[C@@H]1[C@@H]2CC[C@@]2(C)[C@H]1C[C@H]1C[C@H](CCC(=O)O)[C@]12O | inactive

target: T2, Vitamin D3 receptor (Homo sapiens, UniProt P11473); assay: (§1) Agonist activity at vitamin D receptor (unknown origin) expressed in HEK293 cells co-expressing pCMX-RXRalpha and pCMX-beta-galactosidase assessed as induction of receptor transactivation incubated for 16 to 24 hrs by luciferase reporter gene assay; assay type: cell-based
T2 sequence (P11473 whole entry): T1 sequence (whole entry)

Row | SMILES | EC50
9 | C[C@H](CCCC(C)(C)O)[C@H]1CC[C@H]2[C@@H]3CCc4cc(O)ccc4[C@H]3CC[C@]12C | 0.85 µM
10 | CC(C)(O)CCC[C@@H]1C[C@@]12CC[C@H]1[C@@H]3CCc4cc(O)ccc4[C@H]3CC[C@@]12C | 3.7 µM
11 | CC(C)(O)CCC[C@@H]1C[C@@H]2C[C@H]3[C@@H]4CCc5cc(O)ccc5[C@H]4CC[C@]3(C)[C@]12O | 4.1 µM

target: T1, Vitamin D3 receptor (Homo sapiens); assay: as §1; assay type: cell-based

Row | SMILES | Activity
12 | C[C@H](CCC(=O)O)[C@H]1CC[C@H]2[C@@H]3CC[C@@H]4CC(=O)CC[C@]4(C)[C@H]3CC[C@]12C | Active

From ChEMBL document CHEMBL4033744, “Synthesis and biological evaluation of steroidal derivatives bearing a small ring as vitamin D receptor agonists” (Bioorg Med Chem Lett, 2017)
